What was measured:
[1] = tested on: Lactobacillus paracasei overexpressing GroESL; conditions: Desmond et al.; equals 0.4% w/v; cited from earlier work
[2] = tested on: most microorganisms described in the art; conditions: liquid medium; 37° C.; cited from earlier work
[3] = tested on: isolates listed in Table 5 (PN0048, PN0197-10, PN0133); assay: Growth on solid medium (S20 agar replica plating), isolates listed in Table 5; format: cell-based, Enterococcus; conditions: 37° C., 24 to 72 h
Procedure: Phylogenetic characterization of the microbial consortium in the anaerobic bioreactor and isolation of pure strains of 1-butanol resistant bacteria from this bioreactor were performed as follows. Samples of cells taken from the bioreactor at various times and from the bioreactor waste jug were serially diluted, and the serial dilutions were plated on S20 agar medium (S20 medium with 1.6% DifCo™ Agar, Noble-Solidifying agent) without 1-butanol. Colonies were then inoculated from the S20 agar medium into 1.2 mL of S20 medium without 1-butanol in the wells of a square-well microtiter plate (Beckman Coulter Inc, Fullerton, Calif.; Catalog No. 069681). […] Butanol tolerance was determined by growth in the presence of 1-butanol as determined by measuring increases in optical density at 595 nm (OD595) on a microtiter plate reader (HTS 7000 Plus Bio Assay Reader, PerkinElmer Life and Analytical Sciences Inc., Wellesley, Mass.). Isolates that had OD595 readings in the range of 0.1 to 0.8 after growth for 48 h at 37° C. with shaking were selected for further tolerance testing. […] The IC50 values of the isolated strains were determined at 37° C., for 1-butanol, 2-butanol, isobutanol, 2-butanone (also called methyl ethyl ketone (MEK)) and ethanol, following the method described in Example 1.

[4] = tested on: Lactococcus lactis overexpressing GroESL; conditions: Desmond et al.; equals 0.4% w/v; cited from earlier work
[5] = tested on: PN0110 (Enterococcus faecium); conditions: 37° C.
Procedure: (§1) Pure strains of 1-butanol resistant bacteria were isolated from the enrichment cultures as follows. The cells grown in an enrichment culture containing 1.2% or 1.6% 1-butanol were serially diluted, and the serial dilutions were plated on Luria Bertani (LB) agar medium, modified LB agar (i.e., LB agar supplemented with 0.5% sucrose, 0.5% glucose, 0.5% fructose, 0.5% sodium pyruvate, 2 mM MgCl2, 0.7 mM CaCl2, 50 μM MnCl2, 1 μM FeCl3, 1 μM ZnCl2, 1.72 μM CuCl2, 2.53 μM CoCl2, 2.42 μM Na2MoO4 and 2 μM thiamine hydrochloride) or minimal enrichment medium with 2.0% Difco™ Agar Noble, (BD Diagnostic Systems, Sparks, Md.), all without 1-butanol. Colonies were then inoculated from the agar medium into minimal enrichment medium (described above) without 1-butanol in the wells of a microtiter plate. […] The growth was monitored (by OD600) of isolates cultured in S30L medium (i.e., 10 mM ammonium sulfate, 5 mM potassium phosphate buffer, pH 7.0, 50 mM MOPS, pH 7.0, 2 mM MgCl2, 0.7 mM CaCl2, 50 μM MnCl2, 1 μM FeCl3, 1 μM ZnCl2, 1.72 μM CuCl2, 2.53 μM CoCl2, 2.42 μM Na2MoO4, 2 μM thiamine hydrochloride, 0.01 M glucose, and 0.2% yeast extract) at 37° C. in the absence (control) and in the presence of from 1.2% to 3.0% w/v of 1-butanol and the doubling time for each culture was calculated from the logarithmic part of the growth curve (doubling time=0.693/growth rate).

[6] = tested on: isolates from the enrichments; conditions: 37° C., microtiter plate
Procedure: as §1

[7] = tested on: enrichment cultures from environmental sludge samples; conditions: 37° C.
Procedure: Environmental sludge samples were obtained from wastewater treatment facilities at several E.I. du Pont de Nemours and Company sites. Enrichment cultures were established for each sample by inoculating a 125-mL screw cap Erlenmeyer flask with 1 mL of a sludge sample in 10 mL of minimal enrichment medium (i.e., 10 mM ammonium sulfate, 50 mM potassium phosphate buffer, pH 7.0, 2 mM MgCl2, 0.7 mM CaCl2, 50 μM MnCl2, 1 μM FeCl3, 1 μM ZnCl2, 1.72 μM CuCl2, 2.53 μM CoCl2, 2.42 μM Na2MoO4, 2 μM thiamine hydrochloride, 0.5% glucose, 0.5% fructose, 0.5% sucrose and 0.1% yeast extract). The enrichment cultures were incubated at 37° C. with shaking. After 24 h of incubation, the enrichment cultures were diluted 1:10 into fresh medium that contained 0.8%, 1.2% or 1.6% w/v 1-butanol (Sigma Chemical Co.; molecular biology grade (greater than or equal to 99% purity)). Incubation continued under the same conditions. Cultures with the highest level of 1-butanol allowing significant growth (e.g., a culture with an initial OD600 of approximately 0.1 that increased within 24 to 48 h to an OD600 of approximately 1.0) were then diluted 1:10 into fresh medium that contained higher levels of 1-butanol to select for increased tolerance to 1-butanol.

[8] = liquid minimal enrichment medium, shaking

In the case of `CCCCO` [1-butanol], the “concentration in whose presence strains were able to grow” value [1] is listed as 0.5 % volume/volume (v/v), the “concentration at which growth is totally inhibited” value [2] is listed as “less than 2.0 % w/v” and the “concentration on solid medium at which isolates displayed growth” value [3] is listed as no less than 2.5%. For the same molecule, the “concentration in whose presence strains were able to grow” value [4] was 0.5 % volume/volume (v/v), the “concentration in solid medium on which the strain was able to grow” value [5] was 2.5 % w/v and the “concentration in liquid medium at which several isolates displayed growth” value [6] was “at least 2.0%”. For the same molecule, the “concentration in whose presence none of the enrichment cultures grew” value ([7]; liquid medium) was 2.0%, the “concentration in whose presence enrichment cultures from some sites grew” value [7, 8] was 1.6% and the “concentration in whose presence most of the enrichment cultures grew” value [7, 8] was 1.2%.

Reference: patent publication US7659104B2, “Solvent tolerant microorganisms and methods of isolation” (E.I. du Pont de Nemours and Company, priority 2006, dated 2010)
